Experimental data as given in patent US12590953B2, “Methods for screening cereblon modifying compounds” (CELGENE CORPORATION, priority 2018, dated 2026).
“Also recorded” adds a separate entry of the source.

Columns and labels:
[1] = target: T1, SALL4 (Homo sapiens, UniProt Q96SW2+Q9UJQ4); assay: SALL4 protein level in human iPS cells, immunoblot; format: cell-based; settings: 16 hours
T1 construct: host or cells: human iPS cells (CRBN wild-type and CRBN knock-out)
Experimental: Immunoblot analysis of whole cell lysates of CRBN wild-type (WT) and CRBN knock-out (−/−) human iPS cells was performed. Cells were treated with DMSO vehicle control (−) or thalidomide (Thal) at indicated concentrations for 16 hours (n=4, biological replicates).
Immunoblot analysis of whole cell lysates of human iPS cells treated with DMSO (−) or Thal (+) in the presence or absence of 1 μM MLN4924 or 10 μM MG132 for 6 hours were performed (n=2, biological replicates).
Human iPS cell lines ACS-1019 and ACS-1011 (derived from healthy donors) were obtained from ATCC. The hiPSCs were maintained in mTESR-1 medium (Stem Cell Technologies) in cell culture plates coated with a thin layer of Matrigel (BD Biosciences) incubated at 37° C. in a humidified 5% CO2 incubator according to the manufacturer's instruction. Cells were split through mechanic passaging with a glass pipet and enzymatically digestion with Dispase or Accutase every 2 to 3 days.
Human iPSCs, ACS-1019 was transduced with lentiviral vectors expressing CRISPR-Cas9 and small guide RNA targeting cereblon for 4 days. The resulting colonies were amplified and screened for cereblon knockout by immunoblot analysis with anti-CRBN65 antibody (Celgene).

[2] = tested on: SALL4; assay: SALL4 immunohistochemistry in rabbit testis; format: in vivo; settings: male rabbits
Experimental: Male New Zealand white rabbits were treated with vehicle (1% Carboxymethylcellulose in deionized water), or Thalidomide at either 30 or 150 mg/kg/day for 56 days to investigate testicular degeneration. Testis were collected 24 hours after the last dose, fixed in 10% NBF, processed, embedded in paraffin and sectioned at 4 microns for immunohistochemistry.
(§1) Rabbit embryos were stained for SALL4, and mouse testis were stained for SALL4 and ZFP91. Immunohistochemistry (IHC) was performed on the Bond-III automated slide stainer (Leica Microsystems, Buffalo Grove, Ill.) using the Bond Polymer Refine Detection system (Leica Microsystems, DS9800). Formalin fixed paraffin embedded (FFPE) tissues were sectioned at four micron thick and deparaffinized on the Bond-Max instrument. Antigen retrieval was performed with Epitope Retrieval 2 (ER2, pH 9.0) for 20 min at 100° C. The slides were blocked for endogenous peroxidase activity with Peroxide Block for 5 minutes at room temperature. Sections were then incubated with the mouse monoclonal anti-SALL4 EE-30 antibody (Santa Cruz, sc-101147) at a 1:100 dilution for 60 min at room temperature, or with the rabbit monoclonal anti-ZFP91 antibody (Celgene custom clone 122-8-6) at 0.25 ug/ml. […]

[3] = target: T2, SALL4 (Mus musculus, UniProt Q8BX22); assay: SALL4 immunohistochemistry in wild-type mouse testis; format: in vivo; settings: wild type mice, 1000 mg/kg
T2 construct: tissue Taconic; host or cells: wild-type mouse testis (C57Bl/6Ntac)
T2 sequence (Q8C7D2 whole entry partner): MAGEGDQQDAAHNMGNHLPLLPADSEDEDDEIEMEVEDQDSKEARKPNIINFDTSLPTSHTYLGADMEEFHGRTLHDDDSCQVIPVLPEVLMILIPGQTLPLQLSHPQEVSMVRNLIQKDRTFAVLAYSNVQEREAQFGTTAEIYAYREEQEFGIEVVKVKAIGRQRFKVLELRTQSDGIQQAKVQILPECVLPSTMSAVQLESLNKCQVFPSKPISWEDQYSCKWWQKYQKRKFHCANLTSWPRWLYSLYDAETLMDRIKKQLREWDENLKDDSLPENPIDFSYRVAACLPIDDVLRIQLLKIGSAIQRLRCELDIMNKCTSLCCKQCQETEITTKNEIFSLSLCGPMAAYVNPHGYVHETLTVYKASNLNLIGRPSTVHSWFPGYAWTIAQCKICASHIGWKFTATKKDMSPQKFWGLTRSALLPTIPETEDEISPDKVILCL
T2 sequence (Q3U1J4 whole entry partner): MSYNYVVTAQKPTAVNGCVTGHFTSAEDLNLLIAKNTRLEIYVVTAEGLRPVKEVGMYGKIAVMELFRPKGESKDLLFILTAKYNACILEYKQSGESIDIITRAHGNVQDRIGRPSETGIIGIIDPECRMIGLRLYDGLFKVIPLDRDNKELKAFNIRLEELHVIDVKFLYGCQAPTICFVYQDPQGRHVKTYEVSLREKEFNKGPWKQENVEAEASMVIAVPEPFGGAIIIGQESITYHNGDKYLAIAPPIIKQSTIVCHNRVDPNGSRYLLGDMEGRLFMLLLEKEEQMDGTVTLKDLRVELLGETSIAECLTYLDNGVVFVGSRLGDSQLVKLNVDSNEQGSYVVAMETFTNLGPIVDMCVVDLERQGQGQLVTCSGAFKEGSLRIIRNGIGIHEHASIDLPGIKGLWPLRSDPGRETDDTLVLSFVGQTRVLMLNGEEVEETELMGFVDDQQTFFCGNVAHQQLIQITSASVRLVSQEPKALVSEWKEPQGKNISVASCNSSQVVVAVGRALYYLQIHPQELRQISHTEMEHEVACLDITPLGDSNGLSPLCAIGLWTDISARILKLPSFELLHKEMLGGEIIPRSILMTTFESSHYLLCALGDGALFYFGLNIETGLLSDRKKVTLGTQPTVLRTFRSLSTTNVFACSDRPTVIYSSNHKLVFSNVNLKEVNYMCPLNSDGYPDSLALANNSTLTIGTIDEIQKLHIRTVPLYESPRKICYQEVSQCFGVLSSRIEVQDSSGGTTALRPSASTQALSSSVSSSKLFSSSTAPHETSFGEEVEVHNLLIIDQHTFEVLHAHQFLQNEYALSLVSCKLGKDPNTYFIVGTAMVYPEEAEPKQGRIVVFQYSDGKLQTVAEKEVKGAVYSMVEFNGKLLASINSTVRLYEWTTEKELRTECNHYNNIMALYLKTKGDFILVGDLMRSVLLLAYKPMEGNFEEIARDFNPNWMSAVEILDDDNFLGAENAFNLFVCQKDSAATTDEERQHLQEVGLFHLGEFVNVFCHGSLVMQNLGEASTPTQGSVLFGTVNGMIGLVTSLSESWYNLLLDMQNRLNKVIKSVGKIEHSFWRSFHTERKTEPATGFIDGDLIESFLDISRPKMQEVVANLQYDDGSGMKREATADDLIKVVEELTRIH
T2 sequence (Q8BX22 whole entry): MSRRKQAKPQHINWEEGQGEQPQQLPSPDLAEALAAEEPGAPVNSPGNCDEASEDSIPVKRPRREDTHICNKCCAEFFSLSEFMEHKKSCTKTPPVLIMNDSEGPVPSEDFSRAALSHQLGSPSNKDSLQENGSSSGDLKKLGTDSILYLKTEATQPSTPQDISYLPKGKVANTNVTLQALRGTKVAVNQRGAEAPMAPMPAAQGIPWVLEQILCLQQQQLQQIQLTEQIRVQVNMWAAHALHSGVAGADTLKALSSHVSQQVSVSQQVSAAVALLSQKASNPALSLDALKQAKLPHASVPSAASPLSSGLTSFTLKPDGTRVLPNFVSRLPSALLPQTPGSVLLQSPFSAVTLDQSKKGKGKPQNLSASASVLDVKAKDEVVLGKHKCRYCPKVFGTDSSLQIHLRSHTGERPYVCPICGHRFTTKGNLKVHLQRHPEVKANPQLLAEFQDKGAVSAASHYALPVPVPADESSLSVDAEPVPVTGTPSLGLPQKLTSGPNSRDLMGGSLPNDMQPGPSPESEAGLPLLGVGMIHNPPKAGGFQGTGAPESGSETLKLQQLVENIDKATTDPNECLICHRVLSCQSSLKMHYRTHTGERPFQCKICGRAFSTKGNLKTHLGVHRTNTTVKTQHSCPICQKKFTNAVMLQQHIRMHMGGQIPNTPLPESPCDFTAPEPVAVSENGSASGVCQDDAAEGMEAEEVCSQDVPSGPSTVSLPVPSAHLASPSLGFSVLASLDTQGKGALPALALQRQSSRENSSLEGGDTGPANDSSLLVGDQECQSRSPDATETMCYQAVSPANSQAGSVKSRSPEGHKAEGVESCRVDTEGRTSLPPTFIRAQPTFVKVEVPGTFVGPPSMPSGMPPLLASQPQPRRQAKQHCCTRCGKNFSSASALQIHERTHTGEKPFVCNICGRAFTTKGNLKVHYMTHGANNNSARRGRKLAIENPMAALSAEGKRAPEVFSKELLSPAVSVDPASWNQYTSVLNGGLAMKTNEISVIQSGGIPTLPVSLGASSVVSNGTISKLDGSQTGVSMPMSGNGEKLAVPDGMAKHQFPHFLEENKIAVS
Experimental: (§2) The SALL4 and ZFP91 protein levels were examined by immunohistochemistry in rabbit, wild-type mouse, and humanized cereblon mouse testes. […] HuCRBN Mice were treated for 7 days and testis were collected and examined by immunohistochemistry (n=3 animals per treatment group per species).
as §1, with “ug/ml. For mouse testis, primary antibodies were incubated for 15 min at room temperature, and Post-Primary and horseradish peroxidase (HRP) labeled Polymer were incubated at the instrument's default conditions.” for “ug/ml.”

[4] = target: CK1α (Homo sapiens, UniProt P48729); assay: Degradation of CK1α (data not shown)
[5] = target: ZFP91 (Mus musculus, UniProt Q62511); assay: ZFP91 immunohistochemistry in wild-type mouse testis; format: in vivo; set-up: tissue Taconic; host or cells: wild-type mouse testis (C57Bl/6Ntac); settings: wild type mice, 1000 mg/kg
Sequence of ZFP91 (Q8C7D2 whole entry partner): as the sequence (Q8C7D2 whole entry partner) above
Sequence of ZFP91 (Q3U1J4 whole entry partner): as the sequence (Q3U1J4 whole entry partner) above
Sequence of ZFP91 (Q62511 whole entry): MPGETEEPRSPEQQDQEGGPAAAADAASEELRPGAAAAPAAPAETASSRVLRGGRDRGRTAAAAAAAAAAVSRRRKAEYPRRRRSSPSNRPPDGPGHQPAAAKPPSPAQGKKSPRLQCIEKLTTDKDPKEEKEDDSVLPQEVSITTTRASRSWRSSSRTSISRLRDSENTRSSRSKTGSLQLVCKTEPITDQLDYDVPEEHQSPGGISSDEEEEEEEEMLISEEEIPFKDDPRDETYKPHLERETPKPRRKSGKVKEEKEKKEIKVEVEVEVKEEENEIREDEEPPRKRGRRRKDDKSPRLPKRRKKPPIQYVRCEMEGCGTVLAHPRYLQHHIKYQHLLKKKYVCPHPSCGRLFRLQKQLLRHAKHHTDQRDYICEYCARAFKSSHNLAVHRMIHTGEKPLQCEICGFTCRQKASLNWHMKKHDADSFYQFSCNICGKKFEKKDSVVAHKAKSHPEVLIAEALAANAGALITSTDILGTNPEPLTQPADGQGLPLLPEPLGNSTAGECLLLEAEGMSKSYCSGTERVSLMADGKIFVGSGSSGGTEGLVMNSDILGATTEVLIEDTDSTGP
Experimental: as §2
as §1, with “ug/ml. For mouse testis, primary antibodies were incubated for 15 min at room temperature, and Post-Primary and horseradish peroxidase (HRP) labeled Polymer were incubated at the instrument's default conditions.” for “ug/ml.”

T1 sequence (Q9UJQ4 whole entry): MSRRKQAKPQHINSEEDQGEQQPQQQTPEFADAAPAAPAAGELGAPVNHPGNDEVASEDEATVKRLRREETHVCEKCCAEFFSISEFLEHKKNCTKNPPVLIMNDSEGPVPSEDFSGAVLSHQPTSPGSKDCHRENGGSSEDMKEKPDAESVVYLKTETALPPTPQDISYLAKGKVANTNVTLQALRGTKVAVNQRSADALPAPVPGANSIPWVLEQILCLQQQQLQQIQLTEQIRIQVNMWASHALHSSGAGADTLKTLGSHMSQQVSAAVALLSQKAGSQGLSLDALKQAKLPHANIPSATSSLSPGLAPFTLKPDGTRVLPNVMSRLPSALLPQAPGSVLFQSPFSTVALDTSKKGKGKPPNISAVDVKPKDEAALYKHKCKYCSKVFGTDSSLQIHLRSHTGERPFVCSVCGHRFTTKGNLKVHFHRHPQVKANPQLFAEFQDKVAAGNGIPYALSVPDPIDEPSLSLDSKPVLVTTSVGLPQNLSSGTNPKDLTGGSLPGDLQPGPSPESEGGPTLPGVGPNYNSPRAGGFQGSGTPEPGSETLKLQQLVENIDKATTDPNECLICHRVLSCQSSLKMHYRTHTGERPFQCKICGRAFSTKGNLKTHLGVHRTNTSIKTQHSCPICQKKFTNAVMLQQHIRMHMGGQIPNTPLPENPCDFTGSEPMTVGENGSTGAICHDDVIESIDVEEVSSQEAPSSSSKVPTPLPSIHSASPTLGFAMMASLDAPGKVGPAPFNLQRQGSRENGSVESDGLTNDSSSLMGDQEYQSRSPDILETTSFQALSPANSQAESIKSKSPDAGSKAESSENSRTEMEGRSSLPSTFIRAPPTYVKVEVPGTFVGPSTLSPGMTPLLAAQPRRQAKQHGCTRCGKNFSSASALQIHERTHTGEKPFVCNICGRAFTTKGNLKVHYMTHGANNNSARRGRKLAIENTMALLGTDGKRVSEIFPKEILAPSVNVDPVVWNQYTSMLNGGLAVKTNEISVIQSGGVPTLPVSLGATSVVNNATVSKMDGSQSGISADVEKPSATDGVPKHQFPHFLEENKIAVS
T1 sequence (Q96SW2 whole entry): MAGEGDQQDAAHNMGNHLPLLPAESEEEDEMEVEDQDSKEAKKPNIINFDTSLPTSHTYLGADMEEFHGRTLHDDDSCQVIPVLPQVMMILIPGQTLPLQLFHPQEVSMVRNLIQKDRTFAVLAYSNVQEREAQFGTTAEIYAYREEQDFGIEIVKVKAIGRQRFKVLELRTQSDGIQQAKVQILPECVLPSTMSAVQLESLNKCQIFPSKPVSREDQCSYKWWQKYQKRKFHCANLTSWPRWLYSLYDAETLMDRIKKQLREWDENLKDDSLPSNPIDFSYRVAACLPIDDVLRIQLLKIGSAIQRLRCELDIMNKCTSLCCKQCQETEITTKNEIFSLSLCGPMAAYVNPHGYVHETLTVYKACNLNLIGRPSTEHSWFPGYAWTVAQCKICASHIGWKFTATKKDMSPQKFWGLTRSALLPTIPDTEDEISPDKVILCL
T1 sequence (Q16531 whole entry partner): as the sequence (Q3U1J4 whole entry partner) above, with G418N, G495A, S745T, A1020T counted along it

In the case of O=C1CCC(N2C(=O)c3ccccc3C2=O)C(=O)N1 (stereo not shown) [thalidomide], the “SALL4 protein levels in CRBN wild-type human iPS cells” value ([1]; indicated concentrations) is reported as “reduced upon exposure to thalidomide in a dose dependent fashion; also recorded: dependent on thalidomide and cerelon”, the “SALL4 downregulation in CRBN knock-out human iPS cells” value ([1]; CRISPR-mediated cereblon knockout) is reported as “completely blocked the downregulation of SALL4 induced by thalidomide” and the “SALL4 protein levels in testis” value ([2]; 150 mg/kg/day) is reported as “marked decrease; also recorded: caused degradation of both ZFP91 and SALL4”. For the same compound, the “SALL4 protein levels in testis, dose dependence” value ([2]; 30 or 150 mg/kg/day for 56 days) was “dose-dependent decrease in SALL4 levels in the testis of male rabbits; also recorded: dose-dependent reduction of SALL4 protein levels in the testis; also recorded: dose dependent decrease in SALL4 levels in rabbit testis”, the “SALL4 protein levels in testis” value [3] was “exhibited no depletion of SALL4 or ZFP91; also recorded: did not cause significant degradation of either ZFP91 or SALL4” and the “Triggering the degradation of CK1α” value [4] was “does not trigger the degradation of CK1α”. The “ZFP91 protein levels in testis” value [5] was “exhibited no depletion of SALL4 or ZFP91; also recorded: did not cause significant degradation of either ZFP91 or SALL4”.
